Data as given in publication PMC8063472, “Pharmacokinetics of five phthalides in volatile oil of Ligusticum sinense Oliv.cv. Chaxiong, and comparison study on physicochemistry and pharmacokinetics after being formulated into solid dispersion and inclusion compound” (BMC Complementary Medicine and Therapies, 2021).

Experiment: Pharmacokinetic study in rats (plasma LC-MS/MS) after iv or oral VOC, oral VOC-P188 or oral VOC-β-CD
Format: in vivo, Sprague Dawley rats
Conditions: VOC iv 30 mg/kg, rat plasma, n = 6
Experimental: The intravenous injection solution was prepared by dissolving 0.15 g of VOC in 25 ml water containing 3 ml 10% Tween-80 as solubilizer. The oral solution was prepared by dissolving 0.35 g of VOC in 25 ml normal saline containing 3 ml 10% Tween-80 as solubilizer. The VOC-P188 solution was prepared by mixing VOC-P188 5 g in 25 ml water with magnetic stirring apparatus. The VOC-β-CD solution was prepared by mixing VOC-β-CD 3.5 g in 25 ml water with magnetic stirring apparatus.
Twenty-four male SD rats (220 ~ 250 g) were randomly divided into four groups, 6 in each group. After fasting for 12 h before administration, the rats in group 1 were given VOC by tail vein injection at a dose of 30 mg/Kg, the rats at second group were oral administration of VOC solution, the dosage was 120 mg/Kg based on the mass of VOC. The rats at groups 3 and 4 were given VOC-P188 and VOC-β-CD, respectively.
Blood samples (0.3 ml) were collected from the eyes at 0.08, 0.17, 0.33, 0.5, 1, 1.5, 2, 4, 6, 8, 12 and 24 h after administration, and they were immediately transferred into a heparinized Eppendorf (EP) tube. The blood samples were then centrifuged at 13,000 r/min for 10 min. The plasma samples were stored at − 80 °C for later analysis.
The thawed plasma sample (0.1 ml) was transferred to another EP tube and 20 μl of DL, 50 μl of 2% formic acid and 500 μl of methanol were added. The mixture was vortexed for 2 min, and centrifuged at 13000 r/min for 10 min. The supernatant was transferred into a clean EP tube, and evaporated to dryness under a stream of nitrogen at 40 °C. The residue was dissolved in 100 μl of methanol. The supernatant was injected into the HPLC system.
An HPLC system consisting of a solvent-delivery system LC-30 AD, an autosampler SIL-30 AC, a column oven CTO-30 AC, a solvent degasser DGU-20A3, and a controller CBM-20A from […] was used in the study. Separation was conducted using a Shim-pack GIST C18-AQ HP column (2.1 mm × 100 mm, 3 μm). The column oven was maintained at 35 °C. The mobile phase was 0.1% formic acid in water as mobile phase A and acetonitrile as mobile phase B. The linear gradient elution program was set according to preliminary tests: 45–60% B, 0–2 min; 60–65% B, 2–6 min; 65–95% B, 6–7 min; 95–45% B, 7–9 min and 45% B, 9–10 min, with the flow rate kept at 0.3 ml/min. The injection volume was set at 2 μl.
The MS analysis was performed on a 4500 QTRAP™ system from Applied Biosystems (AB Sciex) equipped with Turbo V sources and Turbo Ion Spray™ (TIS) interface. Electrospray ionization was performed in positive mode. Ion source: electrospray ion source (ESI source); detection method: multiple reaction monitoring (MRM); ion source temperature: 500 °C; desolvent gas temperature: 550 °C; desolvent gas flow rate: 800 l/h. The detection ion pair, retention time, declustering voltage and collision energy of each index component and internal standard were shown in Table 2.
The plasma SA, NBP, NOL, ZL and BP concentrations were evaluated using the equation from the standard curves that were run with each batch of samples. The plasma concentration-time data were analyzed with the Drug and Statistics 2.0 software package to determine the pharmacokinetic parameters. The observed Cmax value was obtained from the observed data and the observed AUC0 → t value was calculated using the trapezoidal rule. The absolute bioavailability of VOC and the relative bioavailability of VOC-P188 and VOC-β-CD were calculated, the formula for calculating absolute bioavailability (F1) and relative bioavailability (F2): F1=AUCpo×Div/AUCiv×Dpo×100% […]
Where AUC is the area under the temporal curve of blood drug concentration (μg/l*h), D is administration dosage (mg/kg); the subscripts iv and po are injection and oral administration, respectively; the subscript R is reference drug (VOC); the subscript T is solid dispersion or inclusion compound.

Row | SMILES | t1/2α [h]
1 | CCCC[C@@H]1OC(=O)c2ccccc21 [NBP, N-butylphthalide, reference compound] | 0.06 ± 0.04

Same assay, conditions: VOC po 120 mg/kg, rat plasma, n = 6

Row | SMILES | t1/2α [h]
2 | CCCC[C@@H]1OC(=O)c2ccccc21 [NBP, N-butylphthalide, reference compound] | 0.26 ± 0.10

Same assay, conditions: VOC-P188 solid dispersion po vs VOC po, rats

Row | SMILES | F2 (relative bioavailability) [%]
3 | CCCC[C@@H]1OC(=O)c2ccccc21 [NBP, N-butylphthalide, reference compound] | 197.67

Same assay, conditions: VOC-P188 solid dispersion po, rat plasma, n = 6

Row | SMILES | t1/2α
4 | CCCC[C@@H]1OC(=O)c2ccccc21 [NBP, N-butylphthalide, reference compound] | 2.82 ± 1.55^** h

Same assay, conditions: VOC-β-CD inclusion compound po vs VOC po, rats

Row | SMILES | F2 (relative bioavailability) [%]
5 | CCCC[C@@H]1OC(=O)c2ccccc21 [NBP, N-butylphthalide, reference compound] | 198.39

Same assay, conditions: VOC-β-CD inclusion compound po, rat plasma, n = 6

Row | SMILES | t1/2α
6 | CCCC[C@@H]1OC(=O)c2ccccc21 [NBP, N-butylphthalide, reference compound] | 3.95 ± 1.96^** h

Same assay, conditions: male, Sprague-Dawley, rat, plasma, iv, 30 mg/kg, VOC iv 30 mg/kg, rat plasma, n = 6

Row | SMILES | AUC(0-t) [ng·h/mL]
7 | CCCC[C@@H]1OC(=O)c2ccccc21 [NBP, N-butylphthalide, reference compound] | 54.6 ± 16.5

Same assay, conditions: male, Sprague-Dawley, rat, plasma, iv, 30 mg/kg, VOC iv 30 mg/kg, rat plasma, n = 6; read-out: MRT0-t

Row | SMILES | MRT last [min]
8 | CCCC[C@@H]1OC(=O)c2ccccc21 [NBP, N-butylphthalide, reference compound] | 32.4 ± 13.2

Same assay, conditions: male, Sprague-Dawley, rat, plasma, iv, 30 mg/kg, VOC iv 30 mg/kg, rat plasma, n = 6; read-out: Tmax

Row | SMILES | Tmax [min]
9 | CCCC[C@@H]1OC(=O)c2ccccc21 [NBP, N-butylphthalide, reference compound] | 4.98

Same assay, conditions: male, Sprague-Dawley, rat, plasma, iv, 30 mg/kg, VOC iv 30 mg/kg, rat plasma, n = 6; read-out: t1/2β (converted)

Row | SMILES | half-life [min]
10 | CCCC[C@@H]1OC(=O)c2ccccc21 [NBP, N-butylphthalide, reference compound] | 15.6 ± 9

Same assay, conditions: male, Sprague-Dawley, rat, plasma, iv, 30 mg/kg, VOC iv (tail vein) 30 mg/kg, rat plasma, n = 6

Row | SMILES | Cmax [ng/mL]
11 | CCCC[C@@H]1OC(=O)c2ccccc21 [NBP, N-butylphthalide, reference compound] | 196 ± 64.5

Same assay, conditions: male, Sprague-Dawley, rat, plasma, po, 120 mg/kg, VOC po 120 mg/kg, rat plasma, n = 6

Row | SMILES | AUC(0-t) [ng·h/mL] | Cmax [ng/mL]
12 | CCCC[C@@H]1OC(=O)c2ccccc21 [NBP, N-butylphthalide, reference compound] | 36.1 ± 7.58 | 25.9 ± 8.3

Same assay, conditions: male, Sprague-Dawley, rat, plasma, po, 120 mg/kg, VOC po 120 mg/kg, rat plasma, n = 6; read-out: MRT0-t

Row | SMILES | MRT last [min]
13 | CCCC[C@@H]1OC(=O)c2ccccc21 [NBP, N-butylphthalide, reference compound] | 162 ± 28.2

Same assay, conditions: male, Sprague-Dawley, rat, plasma, po, 120 mg/kg, VOC po 120 mg/kg, rat plasma, n = 6; read-out: Tmax

Row | SMILES | Tmax [min]
14 | CCCC[C@@H]1OC(=O)c2ccccc21 [NBP, N-butylphthalide, reference compound] | 28.2 ± 4.2

Same assay, conditions: male, Sprague-Dawley, rat, plasma, po, 120 mg/kg, VOC po 120 mg/kg, rat plasma, n = 6; read-out: t1/2β (converted)

Row | SMILES | half-life [min]
15 | CCCC[C@@H]1OC(=O)c2ccccc21 [NBP, N-butylphthalide, reference compound] | 39 ± 44.4

Same assay, conditions: male, Sprague-Dawley, rat, plasma, po, 120 mg/kg, VOC po vs VOC iv, rats; read-out: F1 (absolute bioavailability)

Row | SMILES | bioavailability [%]
16 | CCCC[C@@H]1OC(=O)c2ccccc21 [NBP, N-butylphthalide, reference compound] | < 25

Same assay, conditions: male, Sprague-Dawley, rat, plasma, po, 120 mg/kg, after oral administration of VOC, rats; read-out: Tmax (time of peak concentration)

Row | SMILES | Tmax [min]
17 | CCCC[C@@H]1OC(=O)c2ccccc21 [NBP, N-butylphthalide, reference compound] | < 30

Same assay, conditions: male, Sprague-Dawley, rat, plasma, po, VOC-P188 and VOC-β-CD po, rats; read-out: bioavailability in the two preparations

Row | SMILES | bioavailability [%]
18 | CCCC[C@@H]1OC(=O)c2ccccc21 [NBP, N-butylphthalide, reference compound] | < 50

Same assay, conditions: male, Sprague-Dawley, rat, plasma, po, VOC-P188 solid dispersion po, rat plasma, n = 6

Row | SMILES | AUC(0-t) [ng·h/mL] | Cmax [ng/mL]
19 | CCCC[C@@H]1OC(=O)c2ccccc21 [NBP, N-butylphthalide, reference compound] | 72.7 ± 9.8 | 23.5 ± 1.59

Same assay, conditions: male, Sprague-Dawley, rat, plasma, po, VOC-P188 solid dispersion po, rat plasma, n = 6; read-out: MRT0-t

Row | SMILES | MRT last [min]
20 | CCCC[C@@H]1OC(=O)c2ccccc21 [NBP, N-butylphthalide, reference compound] | 244 ± 27.6

Same assay, conditions: male, Sprague-Dawley, rat, plasma, po, VOC-P188 solid dispersion po, rat plasma, n = 6; read-out: Tmax

Row | SMILES | Tmax [min]
21 | CCCC[C@@H]1OC(=O)c2ccccc21 [NBP, N-butylphthalide, reference compound] | 19.2 ± 12

Same assay, conditions: male, Sprague-Dawley, rat, plasma, po, VOC-P188 solid dispersion po, rat plasma, n = 6; read-out: t1/2β (converted)

Row | SMILES | half-life [min]
22 | CCCC[C@@H]1OC(=O)c2ccccc21 [NBP, N-butylphthalide, reference compound] | 188 ± 60.6

Same assay, conditions: male, Sprague-Dawley, rat, plasma, po, VOC-β-CD inclusion compound po, rat plasma, n = 6

Row | SMILES | AUC(0-t) [ng·h/mL] | Cmax [ng/mL]
23 | CCCC[C@@H]1OC(=O)c2ccccc21 [NBP, N-butylphthalide, reference compound] | 76.1 ± 24.6 | 22.4 ± 5.56

Same assay, conditions: male, Sprague-Dawley, rat, plasma, po, VOC-β-CD inclusion compound po, rat plasma, n = 6; read-out: MRT0-t

Row | SMILES | MRT last [min]
24 | CCCC[C@@H]1OC(=O)c2ccccc21 [NBP, N-butylphthalide, reference compound] | 317 ± 62.4

Same assay, conditions: male, Sprague-Dawley, rat, plasma, po, VOC-β-CD inclusion compound po, rat plasma, n = 6; read-out: Tmax

Row | SMILES | Tmax [min]
25 | CCCC[C@@H]1OC(=O)c2ccccc21 [NBP, N-butylphthalide, reference compound] | 49.8 ± 15.6

Same assay, conditions: male, Sprague-Dawley, rat, plasma, po, VOC-β-CD inclusion compound po, rat plasma, n = 6; read-out: t1/2β (converted)

Row | SMILES | half-life [min]
26 | CCCC[C@@H]1OC(=O)c2ccccc21 [NBP, N-butylphthalide, reference compound] | 263 ± 109
